# Source: the supplement of paper PMC10307832
# Experiments:
# Test in all cases: relative viability (nuclei count vs DMSO), 5 days (fraction); higher = more cells survive
# Alpelisib + Navitoclax = compound: Cc1nc(NC(=O)N2CCC[C@H]2C(N)=O)sc1-c1ccnc(C(C)(C)C(F)(F)F)c1 [Alpelisib] + CC1(C)CCC(c2ccc(Cl)cc2)=C(CN2CCN(c3ccc(C(=O)NS(=O)(=O)c4ccc(N[C@H](CCN5CCOCC5)CSc5ccccc5)c(S(=O)(=O)C(F)(F)F)c4)cc3)CC2)C1 [Navitoclax] (partner 0.5 µM)
# Method in brief: (§1)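 The day after seeding in 1536-well plates, lung cancer cell lines were treated by pin tool with a single drug, or with a fixed anchor-drug dose together with five library-drug doses (not always all listed) in √10 steps. After 5 days, a combined fix-and-stain solution (final 0.05% Triton X-100, 1% formaldehyde, 1 ug/ml Hoechst) was added. Nuclei counted on 4× images gave relative viability as treated counts over vehicle counts, reported as the median of duplicate plates.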
# OSI-027 + Dasatinib = compound: COc1cccc2cc(-c3nc([C@H]4CC[C@H](C(=O)O)CC4)n4ncnc(N)c34)[nH]c12 [OSI-027] + Cc1nc(Nc2ncc(C(=O)Nc3c(C)cccc3Cl)s2)cc(N2CCN(CCO)CC2)n1 [Dasatinib] (partner 0.075 µM)
# Method in brief: as §1
# Vemurafenib + Decitabine = compound: CCCS(=O)(=O)Nc1ccc(F)c(C(=O)c2c[nH]c3ncc(-c4ccc(Cl)cc4)cc23)c1F [Vemurafenib] + Nc1ncn([C@H]2C[C@H](O)[C@@H](CO)O2)c(=O)n1 [Decitabine] (partner 2 µM)
# Method in brief: as §1
# Vemurafenib + Vorinostat = compound: CCCS(=O)(=O)Nc1ccc(F)c(C(=O)c2c[nH]c3ncc(-c4ccc(Cl)cc4)cc23)c1F [Vemurafenib] + O=C(CCCCCCC(=O)Nc1ccccc1)NO [Vorinostat] (partner 1 µM)
# Method in brief: as §1
Cell Line,relative viability (Alpelisib + Navitoclax; first compound 0.04 µM),relative viability (Alpelisib + Navitoclax; first compound 0.1265 µM),relative viability (Alpelisib + Navitoclax; first compound 0.4 µM),relative viability (Alpelisib + Navitoclax; first compound 1.265 µM),relative viability (Alpelisib + Navitoclax; first compound 4 µM),relative viability (OSI-027 + Dasatinib; first compound 0.01 µM),relative viability (OSI-027 + Dasatinib; first compound 0.03162 µM),relative viability (OSI-027 + Dasatinib; first compound 0.1 µM),relative viability (OSI-027 + Dasatinib; first compound 0.3162 µM),relative viability (OSI-027 + Dasatinib; first compound 1 µM),relative viability (Vemurafenib + Decitabine; first compound 0.03162 µM),relative viability (Vemurafenib + Decitabine; first compound 0.1 µM),relative viability (Vemurafenib + Decitabine; first compound 1 µM),relative viability (Vemurafenib + Vorinostat; first compound 0.03162 µM),relative viability (Vemurafenib + Vorinostat; first compound 0.1 µM),relative viability (Vemurafenib + Vorinostat; first compound 1 µM),relative viability (Vemurafenib + Decitabine; first compound 0.3162 µM),relative viability (Vemurafenib + Vorinostat; first compound 0.3162 µM)
A-427,0.837,0.884,0.997,0.874,0.884,0.679,0.663,0.573,0.391,0.3,0.553,0.456,0.591,0.807,0.819,0.875,,
SK-LU-1,0.781,0.788,0.845,0.814,0.654,0.169,0.172,0.178,0.127,0.134,0.638,0.588,0.56,0.699,0.687,0.835,0.504,0.535
PC-3 [JPC-3],0.828,0.836,0.848,0.73,0.762,0.883,0.895,1.03,0.936,0.494,,,0.888,,,1.06,0.81,0.66
ChaGo-K-1,1.01,,1.14,0.731,0.583,0.515,0.618,0.5,0.549,0.474,0.548,0.47,0.512,0.743,0.762,0.762,0.493,0.605
NCI-H2023,0.882,1.01,0.887,0.782,0.66,0.588,0.621,0.505,0.338,0.192,0.228,0.224,0.246,0.531,0.662,0.584,0.257,0.57
LXF-289,0.91,0.972,0.968,0.917,0.939,0.175,0.216,0.198,0.182,0.102,0.329,0.303,0.35,0.708,0.656,0.789,0.377,0.805
EBC-1,0.417,0.312,0.339,0.233,0.281,,,,,,,,,,,,,
LOU-NH91,0.707,0.637,0.526,0.504,0.343,0.533,0.542,0.471,0.407,0.392,0.74,0.638,0.863,0.87,0.742,0.933,0.703,0.692
PC-14,0.984,1.08,1.16,0.913,0.945,0.237,0.253,0.241,0.303,0.197,0.223,,0.237,0.72,,0.655,0.181,0.643
Calu-6,0.834,0.905,0.882,0.633,0.621,,,,,,,,,,,,,
SW 900,,,,,,,0.6,0.641,0.487,0.288,0.428,0.346,0.466,0.41,0.466,0.379,0.439,0.636
